The IC50 is the concentration that inhibits the measured activity by half.

The record followed here is patent US8697739B2, “Bicyclic acetyl-CoA carboxylase inhibitors and uses thereof” (Novartis AG, priority 2010, dated 2014).

Each structure is given as a SMILES string. Some results are limits rather than exact numbers.

For this assay, the target named is T1, human acetyl-CoA carboxylase 2 (ACC2) (Homo sapiens, UniProt O00763).
T1 construct: The cDNA encoding amino acids 144 to 2458 of human acetyl-CoA carboxylase 2; made in house; host or cells: Sf9 insect cells (baculovirus, pFastBac1)
T1 sequence (O00763 144-2458): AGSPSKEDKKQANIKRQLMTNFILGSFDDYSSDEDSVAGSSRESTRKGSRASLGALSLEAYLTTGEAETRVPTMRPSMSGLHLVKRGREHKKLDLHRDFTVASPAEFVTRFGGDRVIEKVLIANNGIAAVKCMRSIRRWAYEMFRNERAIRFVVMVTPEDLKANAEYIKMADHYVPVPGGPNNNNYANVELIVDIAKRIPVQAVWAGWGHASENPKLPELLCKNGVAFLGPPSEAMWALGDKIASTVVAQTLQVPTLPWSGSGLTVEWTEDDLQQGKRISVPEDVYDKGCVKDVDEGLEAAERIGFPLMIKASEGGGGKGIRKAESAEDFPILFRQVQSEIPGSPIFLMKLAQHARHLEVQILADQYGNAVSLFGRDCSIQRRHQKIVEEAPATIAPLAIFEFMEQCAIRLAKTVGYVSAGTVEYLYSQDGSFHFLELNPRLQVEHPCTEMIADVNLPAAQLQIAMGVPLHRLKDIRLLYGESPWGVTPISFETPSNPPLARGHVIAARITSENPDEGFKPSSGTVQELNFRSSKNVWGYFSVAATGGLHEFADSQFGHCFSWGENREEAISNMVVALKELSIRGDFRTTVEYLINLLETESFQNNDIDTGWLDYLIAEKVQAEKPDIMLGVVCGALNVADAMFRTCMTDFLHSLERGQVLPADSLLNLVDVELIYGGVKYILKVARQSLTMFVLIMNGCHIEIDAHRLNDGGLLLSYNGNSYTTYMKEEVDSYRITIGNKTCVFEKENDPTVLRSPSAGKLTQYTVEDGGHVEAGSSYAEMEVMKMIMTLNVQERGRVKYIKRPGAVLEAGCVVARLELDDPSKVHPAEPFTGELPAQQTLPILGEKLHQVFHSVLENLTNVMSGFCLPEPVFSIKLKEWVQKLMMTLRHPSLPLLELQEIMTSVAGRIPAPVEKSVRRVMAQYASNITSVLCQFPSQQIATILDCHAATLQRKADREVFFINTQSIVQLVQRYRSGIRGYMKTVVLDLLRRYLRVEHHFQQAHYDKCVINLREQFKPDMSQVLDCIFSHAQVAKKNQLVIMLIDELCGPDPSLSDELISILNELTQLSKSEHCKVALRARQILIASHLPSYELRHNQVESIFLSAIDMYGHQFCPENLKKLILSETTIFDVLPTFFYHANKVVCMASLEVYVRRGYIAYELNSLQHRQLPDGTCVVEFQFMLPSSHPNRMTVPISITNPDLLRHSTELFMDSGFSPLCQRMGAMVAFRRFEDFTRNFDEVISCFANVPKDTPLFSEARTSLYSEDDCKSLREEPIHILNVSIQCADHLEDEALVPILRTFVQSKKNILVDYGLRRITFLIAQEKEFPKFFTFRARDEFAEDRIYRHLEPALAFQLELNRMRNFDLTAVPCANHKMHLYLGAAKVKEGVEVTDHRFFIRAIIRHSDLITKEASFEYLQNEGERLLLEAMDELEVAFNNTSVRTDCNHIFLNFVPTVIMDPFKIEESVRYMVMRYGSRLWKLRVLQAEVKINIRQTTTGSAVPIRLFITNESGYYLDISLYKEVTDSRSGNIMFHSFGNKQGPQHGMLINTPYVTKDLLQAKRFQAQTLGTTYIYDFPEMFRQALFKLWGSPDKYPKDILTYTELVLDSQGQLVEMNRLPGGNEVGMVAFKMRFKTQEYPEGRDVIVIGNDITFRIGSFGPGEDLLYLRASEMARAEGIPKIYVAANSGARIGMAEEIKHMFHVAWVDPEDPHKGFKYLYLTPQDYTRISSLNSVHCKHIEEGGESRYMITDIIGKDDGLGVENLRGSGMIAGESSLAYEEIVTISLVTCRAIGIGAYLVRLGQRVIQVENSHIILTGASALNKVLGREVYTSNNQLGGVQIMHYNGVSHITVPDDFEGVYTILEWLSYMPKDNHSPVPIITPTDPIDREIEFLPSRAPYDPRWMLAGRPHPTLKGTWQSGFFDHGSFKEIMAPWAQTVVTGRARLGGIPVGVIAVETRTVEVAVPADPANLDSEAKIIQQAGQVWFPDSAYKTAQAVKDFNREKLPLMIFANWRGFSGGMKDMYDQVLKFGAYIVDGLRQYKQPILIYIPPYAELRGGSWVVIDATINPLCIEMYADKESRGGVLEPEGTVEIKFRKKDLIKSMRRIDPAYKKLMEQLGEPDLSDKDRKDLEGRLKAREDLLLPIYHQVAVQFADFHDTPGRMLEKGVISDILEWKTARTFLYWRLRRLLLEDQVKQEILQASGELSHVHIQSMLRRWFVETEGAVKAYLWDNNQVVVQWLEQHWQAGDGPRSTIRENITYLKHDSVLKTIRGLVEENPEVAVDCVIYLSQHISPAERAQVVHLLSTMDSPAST
As to the kind of experiment: Acetyl-CoA carboxylase enzyme assay (malonyl-CoA formation by LC/MS/MS). The format is biochemical. To be noted: recombinant human ACC2 (aa 144-2458); read-out: IC50 ACC2. An outline of the steps:
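Malonyl-CoA formation was read by LC/MS/MS MRM against a [13C3]-malonyl-CoA internal standard, after acetic acid quench. The enzyme was baculovirus/Sf9-expressed human ACC2 residues 144–2458, given 15 minutes room-temperature compound preincubation in HEPES pH 7.5 buffer with MgCl2, citrate and DTT. Substrate solution held 50 μM acetyl-CoA, 120 μM ATP and 2 mM KHCO3.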
For the compound `COc1ccc(Nc2nc3cc(S(=O)(=O)N[C@H]4CC[C@H](c5nnc(C(C)C)o5)CC4)ccc3[nH]2)cc1` [Example 594, N-((1r,4r)-4-(5-isopropyl-1,3,4-oxadiazol-2-yl)cyclohexyl)-2-(4-methoxyphenylamino)-1H-benzo[d]imidazole-5-sulfonamide], the concentration for half-maximal inhibition (IC50) is 202 nM.

With `COC[C@@H](NC(=O)[C@H]1CC[C@H](NS(=O)(=O)c2ccc3c(ccn3C)c2)CC1)c1ccccc1` [Example 674, (1r,4S)-N-((S)-2-methoxy-1-phenylethyl)-4-(1-methyl-1H-indole-5-sulfonamido)cyclohexanecarboxamide], the concentration for half-maximal inhibition (IC50) worked out at 771 nM.

Consider `O=C(OCc1ccccc1)[C@H]1CC[C@H](NS(=O)(=O)c2ccc3nc(-c4ccccc4)[nH]c3c2)CC1` [Example 99, (1r,4r)-benzyl 4-(2-phenyl-1H-benzo[d]imidazole-6-sulfonamido)cyclohexanecarboxylate], for which the 50% inhibitory concentration (IC50) is 494 nM.

Consider `CCOC(=O)C1CCCCN1C(=O)[C@H]1CC[C@H](NS(=O)(=O)c2ccc3cc(-c4ccc(COC)cc4)n(C)c3c2)CC1` (stereo partly shown) [Example 341, ethyl 1-((1r,4r)-4-(2-(4-(methoxymethyl)phenyl)-1-methyl-1H-indole-6-sulfonamido)cyclohexanecarbonyl)piperidine-2-carboxylate], for which the IC50 was determined as 240 nM.

For `CC(C)CC1CCc2cc(S(=O)(=O)N[C@H]3CC[C@H](C(=O)N[C@H](C)c4ccc(F)cc4)CC3)ccc2N1` (stereo partly drawn) [Example 167, (1r,4R)-N-((R)-1-(4-fluorophenyl)ethyl)-4-(2-isobutyl-1,2,3,4-tetrahydroquinoline-6-sulfonamido)cyclohexanecarboxamide], the IC50 came to 205 nM.

As to `CC(O)Cc1cc2ccc(S(=O)(=O)N[C@H]3CC[C@H](C(=O)N[C@H](C)c4ccc(F)cc4)CC3)cc2[nH]1` (stereo partly drawn) [Example 316, (1r,4R)-N-((R)-1-(4-fluorophenyl)ethyl)-4-(2-(2-hydroxypropyl)-1H-indole-6-sulfonamido)cyclohexanecarboxamide], the half-maximal inhibitory concentration (IC50) worked out at 110 nM.

With `O=C([C@H]1CC[C@H](NS(=O)(=O)c2ccc3c(c2)CCCN3)CC1)N1CCOCC1c1ccccc1` (stereo partly shown) [Example 177, N-((1r,4r)-4-(3-phenylmorpholine-4-carbonyl)cyclohexyl)-1,2,3,4-tetrahydroquinoline-6-sulfonamide], the IC50 was found to be 90 nM.

On to `COc1ccc(-c2cc3ccc(S(=O)(=O)N[C@H]4CC[C@H](C(=O)N5CCOC[C@@H]5C5CC5)CC4)cc3n2C)cc1` [Example 454, N-((1S,4r)-4-((S)-3-cyclopropylmorpholine-4-carbonyl)cyclohexyl)-2-(4-methoxyphenyl)-1-methyl-1H-indole-6-sulfonamide], for which the IC50 was < 10 nM.

`CN1CCN(C)c2ncc(S(=O)(=O)N[C@H]3CC[C@H](C(=O)N4CCN(C(=O)OCc5ccccc5)CC4c4ccccc4)CC3)cc21` (stereo partly shown) [Example 180, benzyl 4-((1r,4r)-4-(1,4-dimethyl-1,2,3,4-tetrahydropyrido[3,2-b]pyrazine-7-sulfonamido)cyclohexanecarbonyl)-3-phenylpiperazine-1-carboxylate]: the IC50 worked out at 138 nM.

`Cn1c(-c2ccc(CO)cc2)cc2ccc(S(=O)(=O)N[C@H]3CC[C@H](C(=O)N4CCN[C@@H](C(F)(F)F)C4)CC3)cc21` [Example 338, 2-(4-(hydroxymethyl)phenyl)-1-methyl-N-((1R,4r)-4-((R)-3-(trifluoromethyl)piperazine-1-carbonyl)cyclohexyl)-1H-indole-6-sulfonamide]: the half-maximal inhibitory concentration (IC50) is 15 nM.

For `CC(C)(C)OC(=O)N1CCN(C(=O)C2CCC(NS(=O)(=O)c3ccc4c(c3)CCCN4)CC2)C(c2ccccc2)C1` (stereo not shown) [Example 173, tert-butyl 3-phenyl-4-((1r,4r)-4-(1,2,3,4-tetrahydroquinoline-6-sulfonamido)cyclohexanecarbonyl)piperazine-1-carboxylate], the IC50 stood at 75 nM.

As to `CC(C)OC(=O)c1ccc(NS(=O)(=O)c2ccc3nc(-c4ccc(OC(C)C)cc4)[nH]c3c2)cc1` [Example 505, isopropyl 4-(2-(4-isopropoxyphenyl)-1H-benzo[d]imidazole-6-sulfonamido)benzoate], the half-maximal inhibitory concentration (IC50) was determined as 1780 nM.

As to `CCOC(=O)Nc1ccc(Nc2nc3cc(S(=O)(=O)Nc4ccc(C(=O)OC(C)C)cc4)ccc3[nH]2)cc1` [Example 534, isopropyl 4-(2-(4-(ethoxycarbonylamino)phenylamino)-1H-benzo[d]imidazole-5-sulfonamido)benzoate], the IC50 was determined as 524 nM.

As for `Cc1c(C(F)(F)F)nc2cccc(S(=O)(=O)N[C@H]3CC[C@H](C(=O)N[C@H](C)c4ccc(F)cc4)CC3)n12` [Example 63, (1r,4R)-N-((R)-1-(4-fluorophenyl)ethyl)-4-(3-methyl-2-(trifluoromethyl)imidazo[1,2-a]pyridine-5-sulfonamido)cyclohexanecarboxamide], the IC50 was > 35000 nM.

On to `Cc1c(-c2ccc(CCC(=O)O)cc2)n(C)c2cc(S(=O)(=O)N[C@H]3CC[C@H](C(=O)N4CCOC[C@@H]4C4CC4)CC3)ccc12` [Example 484, 3-(4-(6-(N-((1S,4r)-4-((S)-3-cyclopropylmorpholine-4-carbonyl)cyclohexyl)sulfamoyl)-1,3-dimethyl-1H-indol-2-yl)phenyl)propanoic acid], for which the half-inhibitory concentration (IC50) is < 10 nM.

As to `[2H]C([2H])([2H])N1C(=O)COc2ccc(S(=O)(=O)N[C@H]3CC[C@H](C(=O)N[C@H](C)c4ccc(F)cc4)CC3)cc21` [Example 155, (1r,4R)-N-((R)-1-(4-fluorophenyl)ethyl)-4-(3-oxo-4-(trideuteriomethyl)-3,4-dihydro-2H-benzo[b][1,4]oxazine-6-sulfonamido)cyclohexanecarboxamide], the IC50 was 175 nM.

For the compound `C[C@@H](NC(=O)[C@H]1CC[C@H](NS(=O)(=O)c2ccc3[nH]c(-c4cccnc4)nc3c2)CC1)c1ccccc1` [Example 281, (1r,4R)-N-((R)-1-phenylethyl)-4-(2-(pyridin-3-yl)-1H-benzo[d]imidazole-5-sulfonamido)cyclohexanecarboxamide], the IC50 was 11 nM.

Take `Cn1c(-c2ccccc2)cc2ccc(S(=O)(=O)N[C@H]3CC[C@H](C(=O)N4CCN(C5CC5)CC4)CC3)cc21` [Example 406, N-((1r,4r)-4-(4-cyclopropylpiperazine-1-carbonyl)cyclohexyl)-1-methyl-2-phenyl-1H-indole-6-sulfonamide]: the IC50 came to 985 nM.

In the case of `O=C([C@H]1CC[C@H](NS(=O)(=O)c2ccc3c(c2)NCCC3)CC1)N1CCNCC1c1ccccc1` (stereo partly shown) [Example 176, N-((1r,4r)-4-(2-phenylpiperazine-1-carbonyl)cyclohexyl)-1,2,3,4-tetrahydroquinoline-7-sulfonamide], the IC50 came out at 105 nM.

As to `Cn1c(-c2ccc(CCC(=O)O)cc2)c(C#N)c2ccc(S(=O)(=O)N[C@H]3CC[C@H](C(=O)N4CCC[C@@H]4C(C)(C)C)CC3)cc21` [Example 430, 3-(4-(6-(N-((1R,4r)-4-((R)-2-tert-butylpyrrolidine-1-carbonyl)cyclohexyl)sulfamoyl)-3-cyano-1-methyl-1H-indol-2-yl)phenyl)propanoic acid], the IC50 was < 10 nM.

On to `CCOc1ccc2cc(S(=O)(=O)N[C@H]3CC[C@H](C(=O)N[C@H](COP(=O)(OC(C)(C)C)OC(C)(C)C)c4ccccc4)CC3)ccc2n1` [Example 268, di-tert-butyl (S)-2-((1r,4S)-4-(2-ethoxyquinoline-6-sulfonamido)cyclohexanecarboxamido)-2-phenylethyl phosphate], for which the IC50 was 435 nM.

For the compound `CC(NC(=O)[C@H]1CC[C@H](NS(=O)(=O)c2ccc3c(c2)N(C)CCC3)CC1)c1cccnc1` (stereo partly shown) [Example 160, (1r,4r)-4-(1-methyl-1,2,3,4-tetrahydroquinoline-7-sulfonamido)-N-(1-(pyridin-3-yl)ethyl)cyclohexanecarboxamide], the IC50 stood at 80 nM.

Take `CN(Cc1ccccc1)C(=O)[C@H]1CC[C@H](NS(=O)(=O)c2ccc3[nH]c(-c4ccccc4)nc3c2)CC1` [Example 619, (1r,4r)-N-benzyl-N-methyl-4-(2-phenyl-1H-benzo[d]imidazole-5-sulfonamido)cyclohexanecarboxamide]: the IC50 worked out at 558 nM.

Turning to `Cn1c(-c2ccccc2)cc2ccc(S(=O)(=O)N[C@H]3CC[C@H](C(=O)N4CCC[C@@H](C(C)(C)O)C4)CC3)cc21` [Example 403, N-((1R,4r)-4-((R)-3-(2-hydroxypropan-2-yl)piperidine-1-carbonyl)cyclohexyl)-1-methyl-2-phenyl-1H-indole-6-sulfonamide], the IC50 turned out to be 10 nM.

`CC(C)CCC(=O)N1CCNc2ncc(S(=O)(=O)N[C@H]3CC[C@H](C(=O)N[C@H](C)c4ccc(F)cc4)CC3)cc21` [Example 220, (1r,4R)-N-((R)-1-(4-fluorophenyl)ethyl)-4-(1-(4-methylpentanoyl)-1,2,3,4-tetrahydropyrido[3,2-b]pyrazine-7-sulfonamido)cyclohexanecarboxamide]: the half-maximal inhibitory concentration (IC50) amounted to 875 nM.

For the compound `COCc1ccc(-c2cc3ccc(S(=O)(=O)N[C@H]4CC[C@H](C(=O)N5CCOC[C@@H]5C)CC4)cc3n2C)cc1` [Example 437, 2-(4-(methoxymethyl)phenyl)-1-methyl-N-((1S,4r)-4-((S)-3-methylmorpholine-4-carbonyl)cyclohexyl)-1H-indole-6-sulfonamide], the IC50 turned out to be 40 nM.

`COCCOc1ccc(-c2cc3ccc(S(=O)(=O)N[C@H]4CC[C@H](C(=O)N[C@H](C)c5ccc(F)cc5)CC4)cc3n2C)cc1` [Example 452, (1r,4R)-N-((R)-1-(4-fluorophenyl)ethyl)-4-(2-(4-(2-methoxyethoxy)phenyl)-1-methyl-1H-indole-6-sulfonamido)cyclohexanecarboxamide]: the IC50 was determined as 10 nM.

Take `CC(C)(C)c1nnc([C@H]2CC[C@H](NS(=O)(=O)c3ccc4[nH]c(-c5cccc(C(=O)O)c5)nc4c3)CC2)o1` [Example 610, 3-(5-(N-((1r,4r)-4-(5-tert-butyl-1,3,4-oxadiazol-2-yl)cyclohexyl)sulfamoyl)-1H-benzo[d]imidazol-2-yl)benzoic acid]: the half-inhibitory concentration (IC50) stood at 1740 nM.
